The values that follow come from PubChem BioAssay (NCI).

Among the test systems are DU-145 prostate; HCT-15 colon; KM12 colon; MDA-N; NCI-H23 lung; NCI-H460 lung; NCI/ADR-RES ovarian; OVCAR-4 ovarian; SK-MEL-5 melanoma; TK-10 renal.
Common to all, as to experiment: inhibition of tumour cell growth, NCI panel, 48 h

SMILES strings stand for the structures. Where “and” joins values, the source holds several entries; their conditions need not be identical. Equal entries are not always repeated.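 Each compound was tested at five concentrations against cells in 96-well plates for 48 hours. Abbreviation: GI50, concentration required for 50% inhibition of growth. TGI marks complete inhibition of growth.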

As to `c1c[nH]c(C23C4C5C6C4C2C6C53)n1` (stereo unspecified), the TGI in the test with DU-145 prostate, with HCT-15 colon, in the test on KM12 colon, in the test on MDA-N, in the test on NCI-H23 lung and in the test on NCI-H460 lung was more than 100 µM throughout. Moreover, the TGI in the test on NCI/ADR-RES ovarian, with OVCAR-4 ovarian, in the test with SK-MEL-5 melanoma and in the test on TK-10 renal was more than 100 µM each time.
On to `COC(=O)[C@H](Cc1c[nH]c2ccccc12)NC(=O)c1ccc(CNC(=O)/C=C/c2cccc(Oc3ccccc3)c2)cc1`, for which the TGI with DU-145 prostate was more than 100 µM; in the test with HCT-15 colon, more than 100 µM; with KM12 colon, more than 100 µM; with MDA-N, 23.9 µM; in the test with NCI-H23 lung, more than 100 µM; in the test on NCI-H460 lung, more than 100 µM. Besides, the TGI in the test with NCI/ADR-RES ovarian, in the test with OVCAR-4 ovarian, in the test with SK-MEL-5 melanoma and in the test on TK-10 renal was more than 100 µM in each case.
For `O=CC12C3CCC1C2C(=O)C3` (stereo unspecified), the TGI in the test on DU-145 prostate, in the test on HCT-15 colon, with KM12 colon, in the test on MDA-N, with NCI-H23 lung and in the test with NCI-H460 lung was more than 100 µM in each case. Also, the TGI with NCI/ADR-RES ovarian, in the test on OVCAR-4 ovarian, in the test on SK-MEL-5 melanoma and in the test with TK-10 renal was more than 100 µM each time.
As for `CCCCCCCCCCC1OC([C@@H](O)CC[C@H](O)C2CC[C@@H](CCCCCCCC(O)CC3=CC(C)OC3=O)O2)CCC1O` (stereo partly specified), the TGI in the test on DU-145 prostate, in the test on HCT-15 colon, in the test on KM12 colon, in the test on MDA-N, in the test on NCI-H23 lung and in the test with NCI-H460 lung was more than 25 µM throughout. The TGI was more than 25 µM in the test on NCI/ADR-RES ovarian; more than 25 µM in the test on OVCAR-4 ovarian; 9.13 µM and > 10.5 µM in the test with SK-MEL-5 melanoma; more than 25 µM in the test on TK-10 renal. For the same compound, the GI50 in the test on HCT-15 colon was 7.58 µM; in the test with KM12 colon, 10.3 µM; with NCI-H23 lung, 1.35 µM; with NCI-H460 lung it was 5.08 µM; in the test with NCI/ADR-RES ovarian, 6.4 µM; in the test on SK-MEL-5 melanoma, 1.81 µM.
Regarding `CN(C)CCCn1nc(N)c2nc3cc(Cl)ccc3nc21`, the TGI in the test on DU-145 prostate, in the test with HCT-15 colon, in the test on KM12 colon, with MDA-N, in the test with NCI-H23 lung and in the test with NCI-H460 lung was more than 100 µM throughout. For the same compound, the TGI in the test on NCI/ADR-RES ovarian was more than 100 µM; with OVCAR-4 ovarian it was more than 100 µM; with SK-MEL-5 melanoma, 41.3 µM; in the test on TK-10 renal, more than 100 µM.
In the case of `CCCCCCCCCCCCOCCCOP(=O)([O-])OCC[N+](C)(C)C`, the TGI was more than 75.1 µM in the test on DU-145 prostate; more than 73.3 µM with HCT-15 colon; 9.77 µM in the test with KM12 colon; 19.3 µM in the test with MDA-N; 99.2 µM in the test on NCI-H23 lung; more than 70 µM in the test on NCI-H460 lung. For the same compound, the TGI in the test on NCI/ADR-RES ovarian is more than 100 µM; with OVCAR-4 ovarian, more than 100 µM; in the test with SK-MEL-5 melanoma, more than 71.3 µM; with TK-10 renal, 14.9 µM.
For `CCOC(=O)CNc1nc(=O)c2c(=O)oc(Cl)cc2o1`, the TGI in the test with DU-145 prostate was more than 100 µM; with HCT-15 colon, 23.7 µM; in the test on KM12 colon, 55.3 µM; in the test with MDA-N, 48 µM; in the test with NCI-H23 lung it was 38.5 µM; with NCI-H460 lung, 36.2 µM. In addition, the TGI in the test on NCI/ADR-RES ovarian was 50.3 µM; in the test with OVCAR-4 ovarian, 34.3 µM; with SK-MEL-5 melanoma, more than 100 µM; in the test on TK-10 renal it was 28 µM.
As to `CCCCCCCCCCCCCCCC(=O)N(CCCCCCCCCCC(=O)O)CC(O)C(O)C(OC1OC(CO)C(O)C(O)C1O)C(O)CO` (stereo unspecified), the TGI with DU-145 prostate is more than 100 µM; in the test on HCT-15 colon, more than 100 µM; in the test on KM12 colon it was 34 µM; in the test on MDA-N, more than 100 µM; with NCI-H23 lung, more than 100 µM; in the test with NCI-H460 lung, more than 100 µM. For the same compound, the TGI is 61.1 µM in the test on NCI/ADR-RES ovarian, more than 100 µM in the test with OVCAR-4 ovarian, more than 100 µM in the test with SK-MEL-5 melanoma and more than 100 µM in the test with TK-10 renal.
Regarding `CCN(CC)CCNC(=O)c1cn2c(ccc3sc4ccccc4c(=O)c32)n1`, the TGI came to 25 µM in the test with DU-145 prostate; 21.2 µM in the test with HCT-15 colon; 24.9 µM with KM12 colon; 28.4 µM with MDA-N; 28.4 µM with NCI-H23 lung; 14.9 µM with NCI-H460 lung. The TGI is 27.8 µM in the test on NCI/ADR-RES ovarian, 22.8 µM with OVCAR-4 ovarian, 22.9 µM with SK-MEL-5 melanoma and 19.1 µM in the test on TK-10 renal.
As to `COc1ccc(C2SCC(=O)N2NC(=O)c2ccc(NC(C)=O)cc2)cc1` (stereo unspecified), the TGI in the test with DU-145 prostate, in the test with HCT-15 colon, in the test with KM12 colon, with MDA-N, with NCI-H23 lung and in the test on NCI-H460 lung was more than 100 µM throughout. In addition, the TGI in the test with NCI/ADR-RES ovarian, in the test on OVCAR-4 ovarian, in the test on SK-MEL-5 melanoma and in the test on TK-10 renal was more than 100 µM each time.
Turning to `O=c1c(=O)c2c(Br)sc(Br)c2c1=O`, the TGI was more than 100 µM with DU-145 prostate; 40.1 µM in the test on HCT-15 colon; more than 100 µM in the test on KM12 colon; 32.8 µM in the test with MDA-N; 40.6 µM in the test with NCI-H23 lung; more than 100 µM in the test with NCI-H460 lung. Moreover, the TGI in the test with NCI/ADR-RES ovarian is more than 100 µM; in the test with OVCAR-4 ovarian it was 31.2 µM; in the test with SK-MEL-5 melanoma, 31.8 µM; in the test on TK-10 renal it was 47.7 µM.
In the case of `Cc1noc(NC2=CC(=O)C(=O)c3ccccc32)c1C`, the TGI with DU-145 prostate was more than 100 µM; in the test with HCT-15 colon it was more than 100 µM; with KM12 colon, 32.7 µM; with MDA-N it was 1.57 µM; in the test on NCI-H23 lung, 35.5 µM; in the test on NCI-H460 lung, more than 100 µM. The TGI was 21.4 µM with NCI/ADR-RES ovarian, more than 100 µM with OVCAR-4 ovarian, 3.75 µM with SK-MEL-5 melanoma and more than 100 µM in the test on TK-10 renal.
In the case of `CN(c1ccccc1Cl)S(=O)(=O)c1ccc([N+](=O)[O-])cc1`, the TGI in the test with DU-145 prostate, in the test with HCT-15 colon, with KM12 colon, with MDA-N, in the test with NCI-H23 lung and in the test on NCI-H460 lung was more than 100 µM each time. The TGI in the test on NCI/ADR-RES ovarian, with OVCAR-4 ovarian, in the test on SK-MEL-5 melanoma and in the test on TK-10 renal was more than 100 µM in each case.
